Results as given in patent publication US11261210B2, “Glycosylated antitumor ether lipids as novel cancer stem cell cytotoxic agents” (UNIVERSITY OF MANITOBA, priority 2012, dated 2022).

Legend:
Type in all cases: cell-based, human
[1] = test system: BT-474 stem cell spheroids; assay: Morphology of BT-474 stem cell spheroids under static conditions; conditions: after 72 h treatment, FIG. 5A
Procedure: FIG. 5. A. Effect of β-O-Gln, C-Gln or ET-18-OCH3 on morphology of JIMT1 stem cell spheroids. B. Effect of β-O-Gln, α-O-Gln or ET-18-OCH3 on morphology of BT-474 stem cell spheroids. BT-474 cancer stem cells were grown for 7 days in ultra low adhesion 6 well plates. The tumorspheres formed were harvested, trypsinised and cell numbers were determined. Equal numbers of cells were dispersed into 48-well plates in mammocult medium and incubation was under static conditions. After spheres were formed, they were incubated with β-O-Gln, α-O-Gln or β-C-Gln (0, 10, or 30 μM) for 6 days. The medium was replenished after 3 days. Images in FIG. 5A were taken at day 0 and 72 h following addition of the compounds. Images in FIG. 5B were taken after 6 days of incubation with the compounds.
The effects of the GAELs, β-O-Gln, α-O-Gln or C-Gln on the growth and viability of tumorspheres growing under static conditions was also investigated. Studies were also conducted with ET-18-OCH3 as a representative of the ALP subclass and an apoptosis inducing compound. Under static conditions a large number of spheroids are formed in control incubations with the vehicle (0.1% EtOH). […] Complete disintegration is observed after incubation with GAELs for 6 days (FIG. 5B). […] Thus, while some disintegration had occurred it was not as comprehensive as those observed with the GAELs.

[2] = test system: JIMT-1 stem cell spheroids; assay: Morphology of JIMT-1 stem cell spheroids
Procedure: FIG. 7. A. Effect of β-O-Gln, β-C-Gln or ET-18-OCH3 on morphology of JIMT-1 stem cell spheroids. B. Effect of β-O-Gln, α-O-Gln or ET-18-OCH3 on morphology of JIMT-1 stem cell spheroids. JIMT-1 cancer stem cells were grown for 7 days in ultra low adhesion 6 well plates. The tumorspheres formed were harvested, trypsinised and cell numbers were determined. Equal numbers of cells were dispersed into 48-well non-treated plates in mammocult medium and incubated in a CO2 incubator under static conditions. After spheres were formed, O-Gln, C-Gln or ET-18-OCH3 were added (0, 10, 20 and 30 μM) and incubation was for a total of 6 days with media supplementation after 3 days. Images for FIG. 7A were taken at day 0 and after 72 h following addition of the compounds. Images for FIG. 7B were taken after 6 days incubation with the compounds.
The above studies were repeated with JIMT-1 spheroids.

BT474 cancer stem cells = assay: Trypan blue dye exclusion viability of BT474 cancer stem cells; conditions: BT474 cancer stem cells incubated with compound
Procedure: Trypan blue dye exclusion assay using the TC10 automated cell counter (BioRad) was also used for some studies.
We investigated the effects of the GAELs and the ALPET-18-OCH3 on the ability of the cancer stem cells to form tumorspheres. […] This was a concentration dependent event and at concentrations greater than 10 μM spheroid formation was completely disrupted.

CCCCCCCCCCCCCCCCOC[C@H](CO[C@@H]1O[C@H](CO)[C@@H](O)[C@H](O)[C@H]1N)OC [β-O-Gln, 1-O-hexadecyl-2-O-methyl-3-O-(2′-amino-2′-deoxy-β-D-glucopyranosyl)-sn-glycerol]
spheroid integrity [1]: significant disintegration | spheroid morphology and compactness ([2]; 10-30 μM, after 3 days, FIG. 7A): profound effect on the morphology and compactness | spheroid integrity ([2]; 6 days, FIG. 7B): complete disintegration of the spheroids | viability (trypan dye exclusion) (BT474 cancer stem cells): not viable
